# Measured values reported in patent publication US9839618B2, “Compositions and methods relating to proliferative diseases” (The Penn State Research Foundation, priority 2010, dated 2017).
# Key:
# [1] = test system: normal cells (melanocytes FOM103, fibroblasts FF2441, keratinocytes HFK); experiment: MTS assay, leelamine on normal cells; type: cell-based; details: Homo sapiens, 72 hour exposure, read-out: concentration to kill 50% of normal cells
# Protocol: The efficacy of leelamine to kill other cancer types is measured and the IC50 for cell lines derived from carcinomas of breast, lung, prostate, connective tissue, pancreas and colon determined. The MTS assay as described in Sharma, A. et al., Clin Cancer Res, 2009, 15:1674-85; and Madhunapantula, S. V. et al., Mol Cancer Ther, 2008, 7:1297-308 is used to establish the IC50 at 24, 48 and 72 hours of leelamine treatment for normal human epidermal melanocytes (FOM103), normal skin fibroblast cells (FF2441), normal skin keratinocytes (HFK) and compared to melanocytic lesion cells from the radial-, vertical- and metastatic melanoma stages. […] IC50 values for each compound in μmol/L for respective cell lines are measured from three independent experiments using GraphPad Prism version 4.01 (GraphPad Software, La Jolla, Calif.). […]
# 5×10^3 cells per well in 100 μL of media are plated and grown in a 96-well plate for 48 to 72 hours and treated with either DMSO vehicle control or 0.62 to 40 μmol/L of leelamine for 24, 48 or 72 hours. IC50 values for each compound in μmol/L for respective cell lines are measured from three independent experiments using GraphPad Prism version 4.01 (GraphPad Software, La Jolla, Calif.).
# [2] = test system: non-melanoma cancer cell lines; experiment: MTS assay, leelamine on non-melanoma cancer cell lines; type: cell-based; details: breast, lung, prostate, connective tissue, pancreas, colon lines
# Protocol: The efficacy of leelamine to kill other cancer types is measured and the IC50 for cell lines derived from carcinomas of breast, lung, prostate, connective tissue, pancreas and colon determined. The MTS assay as described in Sharma, A. et al., Clin Cancer Res, 2009, 15:1674-85; and Madhunapantula, S. V. et al., Mol Cancer Ther, 2008, 7:1297-308 is used to establish the IC50 at 24, 48 and 72 hours of leelamine treatment for normal human epidermal melanocytes (FOM103), normal skin fibroblast cells (FF2441), normal skin keratinocytes (HFK) and compared to melanocytic lesion cells from the radial-, vertical- and metastatic melanoma stages. 5×10^3 cells per well in 100 μL of media are plated and grown in a 96-well plate for 48 to 72 hours and treated with either DMSO vehicle control or 0.62 to 40 μmol/L of leelamine for 24, 48 or 72 hours. IC50 values for each compound in μmol/L for respective cell lines are measured from three independent experiments using GraphPad Prism version 4.01 (GraphPad Software, La Jolla, Calif.). Leelamine is found to be not toxic to normal cells and effective to kill melanoma cells as well as non-melanoma cancer cells as shown in Table 1 in FIG. 20. Leelamine is 3- to 4-fold more specific at killing metastatic melanoma than normal cells, supporting cancer therapeutic utility at concentrations<2 μmol/L.
# [3] = test system: UACC 903 and 1205 Lu cells; experiment: BrdU incorporation proliferation assay; type: cell-based, human; details: 0.62 to 10 μmol/L, 24 hours
# Protocol: (§1) The mechanistic basis of leelamine's activity to inhibit melanoma cell growth is determined by examining the effect of leelamine on 1) cell viability using the MTS assay; 2) proliferation using a BrdU incorporation assay; 3) apoptosis using an assay for caspase-3/7 activity; and 4) cell cycle analysis. The MTS assay as described in Sharma, A. et al., Clin Cancer Res, 2009, 15:1674-85; and Madhunapantula, S. V. et al., Mol Cancer Ther, 2008, 7:1297-308 is used to assay cell viability. Rates of proliferation and apoptosis are measured by seeding 5×10^3 cells in 96-well plates, followed by treatment with 0.62 to 10 μmol/L of leelamine for 24 hours. Proliferating and apoptotic cells are quantified using a colorimetric cell proliferation ELISA BrdU kit (Roche diagnostics, Indianapolis, Ind.) or Apo-ONE Homogenous caspase-3/7 assay kit (Promega, Madison, Wis.), respectively, as described in Sharma, A. et al., Clin Cancer Res, 2009, 15:1674-85; and Madhunapantula, S. V. et al., Mol Cancer Ther, 2008, 7:1297-308.
# [4] = test system: UACC 903 and 1205 Lu cells; experiment: Caspase-3/7 apoptosis assay; type: cell-based, human; details: 0.62 to 10 μmol/L, 24 hours
# Protocol: as §1
# [5] = test system: 1205 Lu human melanoma cell tumors; experiment: Melanoma xenograft tumor development, 1205 Lu; type: in vivo, mice; details: intraperitoneally 2.5-7.5 mg/kg daily for 3-4 weeks, compared to DMSO vehicle
# Protocol: The efficacy of leelamine for inhibiting melanoma tumor development is evaluated on preexisting tumors formed following subcutaneous injection of cancer cells into nude mice. Tumor kinetics are measured by subcutaneous injection of 1.0×10^6 UACC 903 or 1205 Lu cells in 0.2 mL of DMEM supplemented with 10% FBS subcutaneously injected above both left and right rib cages of 3- to 4-wk-old female athymic nude-Foxn1^nu mice (Harlan Laboratories, Indianapolis, Ind.). Six days later, when a fully vascularized tumor (50-75 mm^3) has formed, mice are randomly divided into DMSO vehicle control and experimental groups (5 mice/group; 2 tumors/mouse) and treated intraperitoneally with 2.5-7.5 mg/kg body weight leelamine daily for 3-4 weeks. Body weight (grams) and dimensions of the developing tumors (mm^3) are measured at the time of drug treatment as described in Sharma, A. et al., Clin Cancer Res, 2009, 15:1674-85; and Madhunapantula, S. V. et al., Mol Cancer Ther, 2008, 7:1297-308.
# Tumor kinetics are measured by subcutaneous injection of 1.0×10^6 UACC 903 or 1205 Lu cells in 0.2 mL of DMEM supplemented with 10% FBS subcutaneously injected above both left and right rib cages of 3- to 4-wk-old female athymic nude-Foxn1^nu mice (Harlan Laboratories, Indianapolis, Ind.). […] Body weight (grams) and dimensions of the developing tumors (mm^3) are measured at the time of drug treatment.
# [6] = test system: GFP expressing UACC 903 melanoma cells in skin reconstructs; experiment: Topical treatment of melanoma tumors in skin reconstructs; type: cell-based, human; details: topical 2.5, 5 and 10 uM for 8 days
# Protocol: In this example, the effect of leelamine on melanoma tumors developing in skin reconstructs is tested by topical application. Skin reconstructs are generated by mixing GFP expressing UACC 903 melanoma cells with human normal fibroblasts (FF2441) and keratinocytes (HFK) followed by growing in a 37° C. incubator for 7 days. Beginning from day 8, completely developed skins containing melanoma tumors are treated with increasing concentrations of Leelamine (2.5, 5 and 10 uM in 200 uL PBS) or PBS vehicle alone for an additional 8 more days. The sizes of developing tumors, in terms of area occupied by GFP are measured. […] Also shown in FIG. 22 are images of control and treated cells.
smiles,measurement,setting,value
"CC(C)c1ccc2c(c1)CCC1[C@](C)(CN)CCC[C@]21C (stereo partly drawn) [Leelamine, [(1R,4aS)-1,4a-dimethyl-7-(propan-2-yl)-1,2,3,4,4a,9,10,10a-octahydrophenanthren-1-yl]methanamine]",IC50,[1],5 to 8 µM
same,IC50,[2],1 to 10 µM
same,proliferation (BrdU incorporation),[3],decrease proliferation
same,apoptosis (caspase-3/7 activity),[4],increase apoptosis
same,"reduction of tumor volume, 1205 Lu",[5],57%
same,melanoma tumor growth in skin reconstructs (GFP area),[6],inhibits melanoma tumor growth
